Consider 21 compounds from patent US20250026752A1, “POSITIVE ALLOSTERIC MODULATORS OF THE MUSCARINIC ACETYLCHOLINE RECEPTOR M4” (Vanderbilt University, priority 2021, published 2025).

In this assay the target is T1, human mAChR M4 (Homo sapiens, UniProt P08173).
T1 construct: expressed in transfected cells; host or cells: CHO-K1 (ATCC), stably expressing hM4 and Gqi5
T1 sequence (P08173 1-479): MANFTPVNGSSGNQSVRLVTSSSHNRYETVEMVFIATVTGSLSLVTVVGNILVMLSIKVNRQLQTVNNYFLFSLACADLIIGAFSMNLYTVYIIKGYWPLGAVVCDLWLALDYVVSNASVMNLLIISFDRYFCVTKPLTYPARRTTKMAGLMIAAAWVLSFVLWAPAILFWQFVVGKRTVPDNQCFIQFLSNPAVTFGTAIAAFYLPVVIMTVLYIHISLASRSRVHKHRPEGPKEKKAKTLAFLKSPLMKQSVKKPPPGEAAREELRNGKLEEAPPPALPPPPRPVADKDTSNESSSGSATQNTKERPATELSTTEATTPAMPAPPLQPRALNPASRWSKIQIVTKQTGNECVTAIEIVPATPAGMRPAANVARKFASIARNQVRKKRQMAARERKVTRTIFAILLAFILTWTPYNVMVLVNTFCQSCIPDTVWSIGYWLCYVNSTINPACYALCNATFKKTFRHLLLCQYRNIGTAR
As to the kind of experiment: mAChR M4 cell-based functional assay: calcium flux (Fluo-4, FDSS), positive allosteric modulator activity on the EC20 acetylcholine response, hM4-Gqi5 CHO-K1 cells. The settings on record: for Emax at 30 µM: CHO-K1, human M4, % ACh maximum at 30 μM; for pEC50: human M4, PAM activity on EC20 acetylcholine response, calcium flux, read-out: Human M4 EC50. Here is the method: Human M4 cDNA, along with the chimeric G protein Gqi5, were transfected into Chinese hamster ovary (CHO-K1) cells purchased from the American Type Culture Collection using commercially available Lipofectamine 2000 transfection reagent (Dalby, B. et al., Methods (2004) 33(2), 95-103). hM4-Gqi5 cells were grown in Ham's F-12 medium containing 10% heat-inactivated fetal bovine serum (FBS), 20 mM […], 50 μg/mL G418 sulfate (CAS #108321-42-2), and 500 μg/mL Hygromycin B. rM4-Gqi5 cells were grown in DMEM containing 10% heat-inactivated FBS, 20 mM HEPES, 400 μg/mL G418 sulfate, and 500 μg/mL Hygromycin B.
For high throughput measurement of agonist-evoked increases in intracellular calcium, CHO-K1 cells stably expressing muscarinic receptors were plated in growth medium lacking G418 sulfate and hygromycin at 15,000 cells/20 μL/well in Greiner 384-well black-walled, tissue culture (TC)-treated, clear-bottom plates (VWR). Cells were incubated overnight at 37° C. and 5% C02. The next day, cells were washed using an ELX 405 (BioTek) with assay buffer; the final volume was then aspirated to 20 μL. Next, 20 μL of a 2.3 μM stock of Fluo-4/acetoxymethyl ester (Invitrogen, Carlsbad, CA), prepared as a 2.3 mM stock in DMSO and mixed in a 1:1 ratio with 10% (w/v) Pluronic F-127 and diluted in assay buffer, was added to the wells and the cell plates were incubated for 50 minutes at 37° C. and 5% C02. Dye was removed by washing with the ELX 405 and the final volume was aspirated to 20 μL. Compound master plates were formatted in an 11 point concentration-response curve (CRC) format (1:3 dilutions) in 100% DMSO with a starting concentration of 10 mM using a BRAVO liquid handler (Agilent). Test compound CRCs were then transferred to daughter plates (240 nL) using the Echo acoustic plate reformatter (Labcyte, Sunnyvale, CA) and then diluted into assay buffer (40 μL) to a 2× stock using a Thermo Fisher Combi (Thermo Fisher Scientific, Waltham, MA).
Calcium flux was measured using the Functional Drug Screening System (FDSS) 6000 or 7000 (Hamamatsu Corporation, Tokyo, Japan) as an increase in the fluorescent static ratio. Compounds were applied to cells (20 μL, 2×) using the automated system of the FDSS at 2-4 seconds into the protocol and the data were collected at 1 Hz. At 144 seconds, 10 μL of an EC20 concentration of the muscarinic receptor agonist acetylcholine was added (5×), followed by the addition of 12 μL of an EC80 concentration of acetylcholine at the 230 second time point (5×). Agonist activity was analyzed as a concentration-dependent increase in calcium mobilization upon compound addition. Positive allosteric modulator activity was analyzed as a concentration-dependent increase in the EC20 acetylcholine response. With the acetylcholine EC20 set as baseline, the test compound EC50 is determined as the concentration that produces an increase above baseline of 50% of the maximum increase in acetylcholine response elicted by the test compound. Antagonist activity was analyzed as a concentration-dependent decrease in the ECso acetylcholine response. Concentration-response curves were generated using a four-parameter logistical equation in XLFit curve fitting software (IDBS, Bridgewater, NJ) for Excel (Microsoft, Redmond, WA) or Prism (GraphPad Software, Inc., San Diego, CA).
Compounds were synthesized as described above. Activity (EC50 and Emax) was determined in the mAChR M4 cell-based functional assay as described above and the data are shown in Table 4. The compound numbers correspond to the compound numbers used in Examples 1-33 and Tables 1, 2, and 3.
(In general: Calcium assays in cells follow changes in intracellular calcium, usually with a dye or a luminescent sensor.)

The Emax is the greatest response seen or fitted, relative to the assay's reference. In general, pEC50 refers to −log10 of the EC50, conventionally taken in molar units.

pEC50: −log10 of the molar value.

On to `Cc1ncc(-c2cnc3c(c2)CN(c2ncnc4ccc(Cl)cc24)CC3)s1` [Compound 40, 5-[6-(6-chloroquinazolin-4-yl)-7,8-dihydro-5H-1,6-naphthyridin-3-yl]-2-methyl-thiazole], for which the Emax at 30 µM came out at 79% and the negative logarithm of the EC50 (pEC50) was 6.96.

Consider `Cc1ccc2nc(Nc3ccnn3C)nc(N3CCc4ncc(C(F)(F)F)cc4C3)c2c1` [Compound 181, 6-methyl-N-(2-methylpyrazol-3-yl)-4-[3-(trifluoromethyl)-7,8-dihydro-5H-1,6-naphthyridin-6-yl]quinazolin-2-amine], for which the Emax at 30 µM was found to be 85% and the pEC50 was 6.26.

Turning to `Cc1nc(N2CCc3ncc(C(F)(F)F)cc3C2)c2cc(Br)ccc2n1` [Compound 129, 6-bromo-2-methyl-4-[3-(trifluoromethyl)-7,8-dihydro-5H-1,6-naphthyridin-6-yl]quinazoline], the Emax at 30 µM came to 86% and the negative logarithm of the EC50 (pEC50) was 6.74.

In the case of `Fc1ccc2nc(C(F)(F)F)nc(N3CCc4ncc(C(F)(F)F)cc4C3)c2c1` [Compound 173, 6-fluoro-2-(trifluoromethyl)-4-[3-(trifluoromethyl)-7,8-dihydro-5H-1,6-naphthyridin-6-yl]quinazoline], the Emax at 30 µM was 50% and the pEC50 is 6.77.

With `Fc1ccc2c(N3CCc4ncc(C(F)(F)F)cc4C3)ncnc2c1` [Compound 137, 7-fluoro-4-[3-(trifluoromethyl)-7,8-dihydro-5H-1,6-naphthyridin-6-yl]quinazoline], the maximal response (Emax) at 30 µM worked out at 83% and the pEC50 is 6.37.

`Cc1nc(N2CCc3ncc(-c4ccc(C5CC5)nc4)cc3C2)c2cc(Cl)ccc2n1` [Compound 50, 6-chloro-4-[3-(6-cyclopropyl-3-pyridyl)-7,8-dihydro-5H-1,6-naphthyridin-6-yl]-2-methyl-quinazoline]: the Emax at 30 µM came out at 83% and the pEC50 is 5.97.

Turning to `Cc1ccc(F)c(Oc2cnc3c(c2)CN(c2nc(C)nc4ccc(Cl)cc24)CC3)c1` [Compound 154, 6-chloro-4-[3-(2-fluoro-5-methyl-phenoxy)-7,8-dihydro-5H-1,6-naphthyridin-6-yl]-2-methyl-quinazoline], the Emax at 30 µM was determined as 62% and the pEC50 was 5.11.

With `Fc1ccc2nc(Oc3ccccc3F)nc(N3CCc4ncc(C(F)(F)F)cc4C3)c2c1` [Compound 199, 6-fluoro-2-(2-fluorophenoxy)-4-[3-(trifluoromethyl)-7,8-dihydro-5H-1,6-naphthyridin-6-yl]quinazoline], the maximal response (Emax) at 30 µM was determined as 96% and the pEC50 is 5.47.

Consider `Cc1nc(N2CCc3ncc(N4CCN(C)C(=O)C4)cc3C2)c2cc(Cl)ccc2n1` [Compound 274, 4-(6-(6-chloro-2-methylquinazolin-4-yl)-5,6,7,8-tetrahydro-1,6-naphthyridin-3-yl)-1-methylpiperazin-2-one], for which the Emax at 30 µM is 82% and the pEC50 is 6.19.

`CC1Cc2ncc(C(F)(F)F)cc2CN1c1ncnc2ccc(F)cc12` (stereo not drawn) [Compound 155, 6-fluoro-4-[7-methyl-3-(trifluoromethyl)-7,8-dihydro-5H-1,6-naphthyridin-6-yl]quinazoline]: the Emax at 30 µM was found to be 98% and the pEC50 is 7.22.

As to `Cc1ccc(-c2cnc3c(c2)CN(c2ncnc4ccc(F)cc24)CC3)cn1` [Compound 38, 6-fluoro-4-[3-(6-methyl-3-pyridyl)-7,8-dihydro-5H-1,6-naphthyridin-6-yl]quinazoline], the maximal effect (Emax) at 30 µM was 93% and the pEC50 is 6.77.

Take `Cc1nc(N2CCc3ncc(-c4cnn(C)c4)cc3C2)c2cc(F)ccc2n1` [Compound 21, 6-fluoro-2-methyl-4-[3-(1-methylpyrazol-4-yl)-7,8-dihydro-5H-1,6-naphthyridin-6-yl]quinazoline]: the maximal response (Emax) at 30 µM turned out to be 90% and the negative-log EC50 (pEC50) is 7.40.

`Cc1ccc(F)cc1-c1cnc2c(c1)CN(c1ncnc3ccc(Cl)cc13)CC2` [Compound 301, 6-chloro-4-(3-(5-fluoro-2-methylphenyl)-7,8-dihydro-1,6-naphthyridin-6(5H)-yl)quinazoline]: the maximal response (Emax) at 30 µM was found to be 94% and the negative-log EC50 (pEC50) is 5.51.

For the compound `Cc1nc(N2CCc3ncc(CC(F)(F)F)cc3C2)c2cc(Cl)ccc2n1` [Compound 287, 6-chloro-2-methyl-4-(3-(2,2,2-trifluoroethyl)-7,8-dihydro-1,6-naphthyridin-6(5H)-yl)quinazoline], the Emax at 30 µM is 85% and the pEC50 is 6.44.

Take `Fc1ccc2ncnc(N3CCc4ncc(C(F)(F)F)cc4C3)c2c1` [Compound 122, 6-fluoro-4-[3-(trifluoromethyl)-7,8-dihydro-5H-1,6-naphthyridin-6-yl]quinazoline]: the maximum response (Emax) at 30 µM is 89% and the pEC50 is 7.05.

`Cc1nc(N2CCc3ncc(N4CCOc5ncccc54)cc3C2)c2cc(F)ccc2n1` [Compound 85, 1-[6-(6-fluoro-2-methyl-quinazolin-4-yl)-7,8-dihydro-5H-1,6-naphthyridin-3-yl]-2,3-dihydropyrido[2,3-b][1,4]oxazine]: the Emax at 30 µM came to 85% and the negative logarithm of the EC50 (pEC50) was 7.52.

`Fc1ccc2ncnc(N3CCc4ncc(N5CCC(C(F)(F)F)n6nccc65)cc4C3)c2c1` (stereo not drawn) [Compound 69, 6-fluoro-4-[3-[7-(trifluoromethyl)-6,7-dihydro-5H-pyrazolo[1,5-a]pyrimidin-4-yl]-7,8-dihydro-5H-1,6-naphthyridin-6-yl]quinazoline]: the Emax at 30 µM amounted to 71% and the pEC50 is 6.92.

As for `FC(F)(F)c1cnc2c(c1)CN(c1nc(Cl)nc3ncccc13)CC2` [Compound 121, 2-chloro-4-[3-(trifluoromethyl)-7,8-dihydro-5H-1,6-naphthyridin-6-yl]pyrido[2,3-d]pyrimidine], the Emax at 30 µM was 69% and the pEC50 is 6.44.

For `C[C@@H]1CN(c2cnc3c(c2)CN(c2ncnc4ccc(F)cc24)CC3)CCO1` [Compound 104, (2R)-4-[6-(6-fluoroquinazolin-4-yl)-7,8-dihydro-5H-1,6-naphthyridin-3-yl]-2-methyl-morpholine], the maximum response (Emax) at 30 µM is 63% and the pEC50 was 7.15.

Consider `Cc1ccc2nc(N3CCOCC3)nc(N3CCc4ncc(C(F)(F)F)cc4C3)c2c1` [Compound 205, 4-[6-methyl-4-[3-(trifluoromethyl)-7,8-dihydro-5H-1,6-naphthyridin-6-yl]quinazolin-2-yl]morpholine], for which the Emax at 30 µM turned out to be 63% and the pEC50 is 6.17.

Consider `Clc1nc(N2CCc3ncc(N4CCOc5ncccc54)cc3C2)c2cccnc2n1` [Compound 95, 1-[6-(2-chloropyrido[2,3-d]pyrimidin-4-yl)-7,8-dihydro-5H-1,6-naphthyridin-3-yl]-2,3-dihydropyrido[2,3-b][1,4]oxazine], for which the Emax at 30 µM was 78% and the pEC50 is 6.38.
